In patent US9663508B2, “Biaryl acyl-sulfonamide compounds as sodium channel inhibitors” (AMGEN INC., priority 2013, dated 2017):

Each compound was assayed against human Nav1.7 (Homo sapiens (Human), UniProt Q15858) (assay: Nav 1.7 in vitro PatchXpress (PX) assay). Conditions: not given.
Assay type: cell-based

human Nav1.7, sequence (Q15858 whole entry): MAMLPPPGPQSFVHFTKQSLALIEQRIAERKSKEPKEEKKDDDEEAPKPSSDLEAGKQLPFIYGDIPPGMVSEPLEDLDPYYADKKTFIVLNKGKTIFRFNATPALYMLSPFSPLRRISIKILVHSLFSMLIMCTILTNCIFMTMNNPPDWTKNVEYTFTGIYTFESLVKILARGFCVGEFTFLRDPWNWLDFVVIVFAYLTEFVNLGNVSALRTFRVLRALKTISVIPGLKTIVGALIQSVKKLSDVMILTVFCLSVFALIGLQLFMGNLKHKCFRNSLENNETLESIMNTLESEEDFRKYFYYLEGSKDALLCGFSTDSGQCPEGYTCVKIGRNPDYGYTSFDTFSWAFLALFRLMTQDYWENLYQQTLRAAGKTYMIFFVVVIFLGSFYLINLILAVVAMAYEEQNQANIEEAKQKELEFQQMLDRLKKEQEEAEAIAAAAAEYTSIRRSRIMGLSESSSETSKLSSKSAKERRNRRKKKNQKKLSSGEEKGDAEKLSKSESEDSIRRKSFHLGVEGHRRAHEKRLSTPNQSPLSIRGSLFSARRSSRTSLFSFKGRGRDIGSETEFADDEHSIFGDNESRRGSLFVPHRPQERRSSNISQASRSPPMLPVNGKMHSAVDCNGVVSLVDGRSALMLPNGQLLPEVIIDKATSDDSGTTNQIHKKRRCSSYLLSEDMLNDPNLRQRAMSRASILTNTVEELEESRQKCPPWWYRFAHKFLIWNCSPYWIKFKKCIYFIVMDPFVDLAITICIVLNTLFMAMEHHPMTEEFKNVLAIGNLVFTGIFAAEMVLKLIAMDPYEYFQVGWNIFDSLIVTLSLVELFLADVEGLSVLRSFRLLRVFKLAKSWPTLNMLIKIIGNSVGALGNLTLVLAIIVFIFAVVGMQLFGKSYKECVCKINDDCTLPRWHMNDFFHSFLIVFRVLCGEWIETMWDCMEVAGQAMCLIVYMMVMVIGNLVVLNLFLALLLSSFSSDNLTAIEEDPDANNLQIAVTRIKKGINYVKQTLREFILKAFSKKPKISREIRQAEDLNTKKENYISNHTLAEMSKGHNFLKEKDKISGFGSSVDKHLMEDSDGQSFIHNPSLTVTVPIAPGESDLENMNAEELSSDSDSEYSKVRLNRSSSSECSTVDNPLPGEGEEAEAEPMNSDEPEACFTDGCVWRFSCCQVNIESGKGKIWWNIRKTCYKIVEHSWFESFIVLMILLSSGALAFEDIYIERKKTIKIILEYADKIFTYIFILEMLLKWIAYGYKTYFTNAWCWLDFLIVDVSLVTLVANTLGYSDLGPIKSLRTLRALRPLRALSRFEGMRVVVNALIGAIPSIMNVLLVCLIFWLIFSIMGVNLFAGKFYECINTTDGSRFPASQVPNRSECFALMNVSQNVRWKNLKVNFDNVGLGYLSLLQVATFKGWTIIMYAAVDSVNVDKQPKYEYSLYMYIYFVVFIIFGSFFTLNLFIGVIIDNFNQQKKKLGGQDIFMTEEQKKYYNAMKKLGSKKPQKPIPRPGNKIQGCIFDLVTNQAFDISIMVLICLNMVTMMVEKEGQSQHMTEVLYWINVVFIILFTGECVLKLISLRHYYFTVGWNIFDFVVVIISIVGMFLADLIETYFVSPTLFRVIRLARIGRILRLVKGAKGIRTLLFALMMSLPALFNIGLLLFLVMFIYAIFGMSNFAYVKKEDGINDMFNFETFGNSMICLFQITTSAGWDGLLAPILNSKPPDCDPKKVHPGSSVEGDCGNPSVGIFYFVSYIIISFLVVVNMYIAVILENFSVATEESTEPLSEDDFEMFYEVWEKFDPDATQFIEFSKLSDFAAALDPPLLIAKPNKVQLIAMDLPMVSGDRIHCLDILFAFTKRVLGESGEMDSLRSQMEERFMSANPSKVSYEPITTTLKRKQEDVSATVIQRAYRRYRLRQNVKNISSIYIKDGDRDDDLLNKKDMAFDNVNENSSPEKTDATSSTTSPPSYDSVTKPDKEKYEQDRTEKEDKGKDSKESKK

Row | SMILES | IC50 [µM]
1 | C[C@@H](Oc1ncc(-c2ccc(C(=O)NS(C)(=O)=O)cc2OC(F)F)cc1Cl)c1ccccc1 [Example 455, 4-(5-chloro-6-((1R)-1-phenylethoxy)-3-pyridinyl)-3-(difluoromethoxy)-N-(methylsulfonyl)benzamide] | 0.058
2 | Cc1cccc(Cl)c1Oc1ncc(-c2ccc(C(=O)NS(C)(=O)=O)cc2OC(F)F)cc1Cl [Example 468, 4-(5-chloro-6-(2-chloro-6-methylphenoxy)-3-pyridinyl)-3-(difluoromethoxy)-N-(methylsulfonyl)benzamide] | 0.0535
3 | CS(=O)(=O)NC(=O)c1ccc(-c2cnc(Oc3ccc(Cl)cc3)c(Cl)c2)c(OC(F)F)c1 [Example 466, 4-(5-chloro-6-(4-chlorophenoxy)-3-pyridinyl)-3-(difluoromethoxy)-N-(methylsulfonyl)benzamide] | 0.0688
4 | COc1ccc(Oc2ncc(-c3ccc(C(=O)NS(C)(=O)=O)cc3OC)cc2Cl)c(Cl)c1 [Example 365, 4-(5-chloro-6-(2-chloro-4-methoxyphenoxy)-3-pyridinyl)-3-methoxy-N-(methylsulfonyl)benzamide] | 0.0914
5 | CS(=O)(=O)NC(=O)c1ccc(-c2cnc(Oc3cccc4ccccc34)c(Cl)c2)c(OC(F)F)c1 [Example 452, 4-(5-chloro-6-(1-naphthalenyloxy)-3-pyridinyl)-3-(difluoromethoxy)-N-(methylsulfonyl)benzamide] | 0.0599
6 | CS(=O)(=O)NC(=O)c1ccc(-c2cnc(OCCc3ccccc3)c(Cl)c2)c(OC(F)F)c1 [Example 467, 4-(5-chloro-6-(2-phenylethoxy)-3-pyridinyl)-3-(difluoromethoxy)-N-(methylsulfonyl)benzamide] | 0.0788
7 | COc1cc(C(=O)NS(C)(=O)=O)ccc1-c1cnc(Oc2ccc(C)c(Cl)c2)c(C#N)c1 [Example 549, 4-(6-(3-chloro-4-methylphenoxy)-5-cyano-3-pyridinyl)-3-methoxy-N-(methylsulfonyl)benzamide] | 0.0505
8 | COc1cc(C(=O)NS(C)(=O)=O)ccc1-c1cnc(Oc2ccc(Cl)c(Cl)c2)c(C#N)c1 [Example 692, 4-(5-cyano-6-(3,4-dichlorophenoxy)-3-pyridinyl)-3-methoxy-N-(methylsulfonyl)benzamide] | 0.0603
9 | CC[C@@H](Oc1ncc(-c2cc(F)c(C(=O)NS(C)(=O)=O)cc2C)cc1Cl)c1ccc(F)cc1 [Example 639, 4-(5-chloro-6-(((1R)-1-(4-fluorophenyl)propyl)oxy)-3-pyridinyl)-2-fluoro-5-methyl-N-(methylsulfonyl)benzamide, 4-(5-chloro-6-(((1S)-1-(4-fluorophenyl)propyl)oxy)-3-pyridinyl)-2-fluoro-5-methyl-N-(methylsulfonyl)benzamide] | 0.0704
10 | COc1cc(C(=O)NS(C)(=O)=O)ccc1-c1cnc(N2CCC[C@H]2C(C)C)c(Cl)c1 [Example 355, 4-(5-chloro-6-((2S)-2-(1-methylethyl)-1-pyrrolidinyl)-3-pyridinyl)-3-methoxy-N-(methylsulfonyl)benzamide] | 0.0877

Other lines, results leading:

Row | IC50 [µM] | SMILES
11 | 0.1 | CC1(Oc2ncc(-c3cc(F)c(C(=O)NS(C)(=O)=O)cc3Cl)cc2Cl)CCC1 [Example 602, 5-chloro-4-(5-chloro-6-((1-methylcyclobutyl)oxy)-3-pyridinyl)-2-fluoro-N-(methylsulfonyl)benzamide]
12 | 0.107 | Cc1cc(C(=O)NS(C)(=O)=O)c(F)cc1-c1cnc(N2CCC[C@@H]2c2ccccc2C(F)(F)F)c(Cl)c1 [Example 659, 4-(5-chloro-6-((2R)-2-(2-(trifluoromethyl)phenyl)-1-pyrrolidinyl)-3-pyridinyl)-2-fluoro-5-methyl-N-(methylsulfonyl)benzamide, 4-(5-chloro-6-((2S)-2-(2-(trifluoromethyl)phenyl)-1-pyrrolidinyl)-3-pyridinyl)-2-fluoro-5-methyl-N-(methylsulfonyl)benzamide]
13 | 0.123 | Cc1cc(C(=O)NS(C)(=O)=O)c(F)cc1-c1cnc(Oc2ccc(C(F)(F)F)c(F)c2)c(Cl)c1 [Example 671, 4-(5-chloro-6-(3-fluoro-4-(trifluoromethyl)phenoxy)-3-pyridinyl)-2-fluoro-5-methyl-N-(methylsulfonyl)benzamide]
14 | 0.146 | COc1cc(C(=O)NS(C)(=O)=O)c(F)cc1-c1cnc(N(C)C2CCC2)c(Cl)c1 [Example 697, 4-(5-chloro-6-(cyclobutyl(methyl)amino)-3-pyridinyl)-2-fluoro-5-methoxy-N-(methylsulfonyl)benzamide]
15 | 0.111 | Cc1cc(C(=O)NS(C)(=O)=O)c(F)cc1-c1cnc(OCCC2CC2)c(Cl)c1 [Example 683, 4-(5-chloro-6-(2-cyclopropylethoxy)-3-pyridinyl)-2-fluoro-5-methyl-N-(methylsulfonyl)benzamide]

Same assay, conditions: in-vitro Nav 1.7 PX data

Row | SMILES | IC50 [µM]
16 | Cc1cc(Cl)cc(Cl)c1Oc1ncc(-c2cc(F)c(C(=O)NS(C)(=O)=O)cc2OC(F)F)cc1Cl [Example 782, 4-(5-chloro-6-(2,4-dichloro-6-methylphenoxy)-3-pyridinyl)-5-(difluoromethoxy)-2-fluoro-N-(methylsulfonyl)benzamide] | 0.0161
17 | COc1cc(C(=O)NS(C)(=O)=O)c(F)cc1-c1cnc(Oc2cc(F)cc(F)c2)c(Cl)c1 [Example 740, 4-(5-chloro-6-(3,5-difluorophenoxy)-3-pyridinyl)-2-fluoro-5-methoxy-N-(methylsulfonyl)benzamide] | 0.087
18 | COc1ncc(F)cc1-c1cc(-c2cc(F)c(C(=O)NS(C)(=O)=O)cc2F)cnc1OCC(C)C [Example 837, 2,5-Difluoro-4-(5′-Fluoro-2′-Methoxy-2-(2-Methylpropoxy)-3,3′-Bipyridin-5-yl)-N-(Methylsulfonyl)Benzamide] | 0.81
19 | COc1cc(C(=O)NS(C)(=O)=O)c(F)cc1-c1cnc(N[C@@H]2CCC23CCC3)c(Cl)c1 [Example 722, 4-(5-chloro-6-((1R)-spiro[3.3]hept-1-ylamino)-3-pyridinyl)-2-fluoro-5-methoxy-N-(methylsulfonyl)benzamide, 4-(5-chloro-6-((1S)-spiro[3.3]hept-1-ylamino)-3-pyridinyl)-2-fluoro-5-methoxy-N-(methylsulfonyl)benzamide] | 0.11
20 | CS(=O)(=O)NC(=O)c1cc(OC(F)F)c(-c2cnc(OCc3ccc(Cl)cc3)c(Cl)c2)cc1F [Example 786, 4-(5-chloro-6-((4-chlorobenzyl)oxy)-3-pyridinyl)-5-(difluoromethoxy)-2-fluoro-N-(methylsulfonyl)benzamide] | 0.0556
21 | CS(=O)(=O)NC(=O)c1cc(C2CC2)c(-c2cnc(OC3CCC3)c(Cl)c2)cc1F [Example 802, 4-(5-chloro-6-cyclobutoxypyridin-3-yl)-5-cyclopropyl-2-fluoro-N-(methylsulfonyl)benzamide] | 0.136
22 | CS(=O)(=O)NC(=O)c1cc(OC(F)F)c(-c2cnc(OC3CCC3)c(Cl)c2)cc1F [Example 781, 4-(5-chloro-6-(cyclobutyloxy)-3-pyridinyl)-5-(difluoromethoxy)-2-fluoro-N-(methylsulfonyl)benzamide] | 0.145

The next lines start with the values.

Row | IC50 [µM] | SMILES
23 | 0.0725 | COc1cc(C(=O)NS(C)(=O)=O)c(F)cc1-c1cnc(Oc2cccc(Cl)c2F)c(Cl)c1 [Example 745, 4-(5-chloro-6-(3-chloro-2-fluorophenoxy)-3-pyridinyl)-2-fluoro-5-methoxy-N-(methylsulfonyl)benzamide]
24 | 0.381 | CCc1ccc(-c2cc(F)c(C(=O)NS(C)(=O)=O)cc2C)cc1Cl [Example 814, 3′-chloro-4′-ethyl-5-fluoro-2-methyl-N-(methylsulfonyl)-4-biphenylcarboxamide]
25 | 0.0963 | COc1cc(C(=O)NS(C)(=O)=O)c(F)cc1-c1cnc(Oc2c(F)ccc(F)c2F)c(Cl)c1 [Example 766, 4-(5-chloro-6-(2,3,6-trifluorophenoxy)-3-pyridinyl)-2-fluoro-5-methoxy-N-(methylsulfonyl)benzamide]
26 | 0.0367 | COc1cc(C(=O)NS(C)(=O)=O)c(F)cc1-c1cnc(Oc2c(Cl)cccc2Cl)c(Cl)c1 [Example 764, 4-(5-chloro-6-(2,6-dichlorophenoxy)-3-pyridinyl)-2-fluoro-5-methoxy-N-(methylsulfonyl)benzamide]
27 | 0.0849 | COc1cc(C(=O)NS(C)(=O)=O)c(F)cc1-c1cnc(Oc2cccc(Cl)c2)c(Cl)c1 [Example 765, 4-(5-chloro-6-(3-chlorophenoxy)-3-pyridinyl)-2-fluoro-5-methoxy-N-(methylsulfonyl)benzamide]
28 | 0.0838 | COc1cc(C(=O)NS(C)(=O)=O)c(F)cc1-c1cnc(O[C@@H](C)Cc2ccccc2)c(Cl)c1 [Example 758, 4-(5-chloro-6-((1S)-1-methyl-2-phenylethoxy)-3-pyridinyl)-2-fluoro-5-methoxy-N-(methylsulfonyl)benzamide]
29 | 5.84 | Cc1cc(C(=O)NS(C)(=O)=O)c(F)cc1-c1cccc(OC(F)(F)C(F)F)c1 [Example 812, 5-fluoro-2-methyl-N-(methylsulfonyl)-3′-(1,1,2,2-tetrafluoroethoxy)-4-biphenylcarboxamide]
30 | 0.0764 | COc1cc(C(=O)NS(C)(=O)=O)c(F)cc1-c1cnc(Oc2c(C)cccc2Cl)c(Cl)c1 [Example 748, 4-(5-chloro-6-(2-chloro-6-methylphenoxy)-3-pyridinyl)-2-fluoro-5-methoxy-N-(methylsulfonyl)benzamide]
31 | 0.102 | COc1cc(C(=O)NS(C)(=O)=O)c(F)cc1-c1cnc(O[C@@H]2CCC[C@H]2C)c(Cl)c1 [Example 727, 4-(5-chloro-6-(((1R,2R)-2-methylcyclopentyl)oxy)-3-pyridinyl)-2-fluoro-5-methoxy-N-(methylsulfonyl)benzamide]
32 | 0.0922 | COc1cc(C(=O)NS(C)(=O)=O)c(F)cc1-c1cnc(Oc2ccc(F)c(C)c2)c(Cl)c1 [Example 754, 4-(5-chloro-6-(4-fluoro-3-methylphenoxy)-3-pyridinyl)-2-fluoro-5-methoxy-N-(methylsulfonyl)benzamide]
33 | 0.0585 | COc1cc(C(=O)NS(C)(=O)=O)c(F)cc1-c1cnc(SCc2cc(F)ccc2F)c(Cl)c1 [Example 730, 4-(5-chloro-6-((2,5-difluorobenzyl)sulfanyl)-3-pyridinyl)-2-fluoro-5-methoxy-N-(methylsulfonyl)benzamide]
